In patent US20190249166A1, “Antidote for Chondroitinase” (priority 2018, published 2019):

How the values were obtained:
chondroitinase ABC [1] = molecular target: T1, chondroitinase ABC (Proteus vulgaris, UniProt P59807); assay: Disc dissolution assay with bovine tail nucleus pulposus, absorbance at 232 nm; format: biochemical
T1 sequence (P59807 25-1021): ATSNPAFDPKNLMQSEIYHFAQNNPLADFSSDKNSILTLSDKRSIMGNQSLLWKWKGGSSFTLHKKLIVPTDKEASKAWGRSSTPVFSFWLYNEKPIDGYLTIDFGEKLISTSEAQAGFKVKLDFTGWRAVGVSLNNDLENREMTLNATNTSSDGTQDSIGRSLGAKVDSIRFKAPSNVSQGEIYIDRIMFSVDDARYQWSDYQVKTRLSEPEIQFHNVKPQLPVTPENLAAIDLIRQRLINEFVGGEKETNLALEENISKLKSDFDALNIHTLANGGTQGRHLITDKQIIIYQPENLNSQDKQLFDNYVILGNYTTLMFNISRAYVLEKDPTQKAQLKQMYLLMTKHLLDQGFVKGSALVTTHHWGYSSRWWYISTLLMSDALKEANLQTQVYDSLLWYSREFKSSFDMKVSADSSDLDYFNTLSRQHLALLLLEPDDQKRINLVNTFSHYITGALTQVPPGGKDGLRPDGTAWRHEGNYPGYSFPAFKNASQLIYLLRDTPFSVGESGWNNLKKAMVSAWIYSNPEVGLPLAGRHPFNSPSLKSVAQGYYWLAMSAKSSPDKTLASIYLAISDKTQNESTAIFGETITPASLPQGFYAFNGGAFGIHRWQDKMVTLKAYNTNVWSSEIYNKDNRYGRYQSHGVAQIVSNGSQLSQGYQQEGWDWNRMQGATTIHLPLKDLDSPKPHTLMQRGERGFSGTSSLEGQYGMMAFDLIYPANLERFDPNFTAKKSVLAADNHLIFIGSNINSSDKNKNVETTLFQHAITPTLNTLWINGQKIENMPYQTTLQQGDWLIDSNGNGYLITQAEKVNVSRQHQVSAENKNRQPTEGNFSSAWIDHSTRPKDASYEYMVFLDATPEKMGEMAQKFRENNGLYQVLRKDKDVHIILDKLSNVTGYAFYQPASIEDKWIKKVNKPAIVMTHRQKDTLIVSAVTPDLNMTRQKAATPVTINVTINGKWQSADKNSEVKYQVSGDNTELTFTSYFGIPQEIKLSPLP
Text: In the case of using chondroitinase as a chemonucleolysis agent, the site of injection is a gel-like nucleus pulposus which is dense with chondroitin sulfate, collagen, and the other extra-cellular matrix. To evaluate the effect of these matrices on the inhibition, a disc dissolution assay can be conducted. In the experiment, the nucleus pulposus, of which chondroitin sulfate is composed of 65% dry weight, are collected from bovine tails. […]
Introducing the non-substrate GAG, e.g. heparin, into the solution together with the chondroitinase, results in suppression of the release of chondroitin sulfate tetrasaccharide and/or disaccharide from the nucleus pulposus sample, is therefore a strong indication of the inhibitory and antidote effect on the enzyme. This inhibition of tetrasaccharide/disaccharide release is reflected by the reduction of the absorbance at 232 nm when compared with the buffer solution in the presence chondroitinase only. […]
In disc dissolution assay, 6 intervertebral discs were obtained from a bovine tail. […] The absorbance at 232 nm of each solution was measured at 0 hours, 5 hours, and 20 hours after the immersion of the nucleus pulposus. The increase in absorbance was predominantly due to the dissolution of the small-molecule-containing unsaturated carbon-carbon double bond from the nucleus pulposus. […]

intervertebral disc [2] = assay: Disc height index (DHI) by Micro-CT after intradiscal injection in rabbits; format: in vivo, New Zealand rabbits; conditions: IVD injected with 0.05 U and 0.15 U chondroitinase ABC only
intervertebral disc [3] = assay: as above; format: in vivo, New Zealand rabbits; conditions: for DHI, with heparin / effect on DHI reduction caused by chondroitinase ABC: 0.35 mg heparin
Method: Being used as an antidote, the non-substrate GAG of the present invention is effective in vivo. In the case of chemonucleolysis by chondroitinase ABC, the enzyme is injected into the nucleus pulposus for partial digestion. The effective antidote will be able to inhibit the activity of chondroitinase ABC intradiscally, as well as the reduction of the size of the intervertebral disc. […] When comparing to the control animal, for which the intervertebral disc is injected with Chondroitinase ABC only, the reduction of the disc height can only be observed in the control animal. The detailed experimental result is illustrated in Example 6.
New Zealand rabbits weighing 2.5-3.0 kg were divided into two groups: (1) injection of Chondroitinase ABC (0.05 U and 0.15 U) and heparin (0.35 mg); and (2) injection of chondroitinase ABC (0.05 U and 0.15 U). Before injection of chondroitinase ABC with or without heparin, rabbits were fixed in the dorsal position and anesthetized by 10% chloral hydrate (1 ml/kg). The intervertebral disc (IVD) was located by means of portable x-ray fluoroscope and the injection of the chondroitinase ABC with or without heparin was under fluoroscopic guidance. Rabbits were sacrificed just after the injection and 3 weeks after of injection for collecting the spine. The disc height index (DHI) analyzed by using LaTheta™ Micro-CT scanners (Hitachi-Aloka) at a resolution of 48 um (FIG. 7) and is listed in Table 2.

chondroitinase ABC [4] = molecular target: T1, chondroitinase ABC; assay: Electrophoretic mobility shift assay (EMSA) of chondroitinase ABC and heparin; format: binding; conditions: 20 μg chondroitinase ABC with 3.8 μg heparin (about 0.2 nmol each), room temperature 30 min
Text: Further experiments can be applied to show the direct interaction, or more precisely binding, between GAG and chondroitinase. One of the experimental methods that can show the direct interaction between non-substrate GAG and chondroitinase (without introducing other molecule, like the substrate) is the electrophoretic mobility shift (EMSA) assay.
The principle of EMSA is that the mobility of biomolecules under electrophoresis is affected by the size and charge of the biomolecule. […] The overall size will increase and the mobility is usually changed in the gel electrophoresis. In other words, a shift in the position of the biomolecule in the gel will be observed if there is binding between the biomolecules. For studying the interaction between chondroitinase and non-substrate GAG, EMSA is conducted as described. 5-30 μg chondroitinase is mixed with (a) 0.5 molar ratio, (b) equal molar, and (c) 2 folds molar excess of GAG, and incubated at room temperature for at least 20 min, and more preferred 30 min. These mixtures are loaded onto native polyacrylamide gel and subjected to electrophoresis for 2.5 hours at 100 V. Two identical gels are prepared but stained with different staining solution (Alcian blue for GAG, and Coomassie blue for chondroitinase). […]

chondroitinase ABC [5] = molecular target: T1, chondroitinase ABC; assay: Chondroitinase enzyme inhibition assay, absorbance at 232 nm with chondroitin sulfate C; format: biochemical; conditions: 0.0125 mg/ml heparin; 0.01 U/ml chondroitinase ABC; 0.1 mg/ml chondroitin sulfate C; 37° C., 20 min
Method: Freeze-dried chondroitinase is reconstituted in 0.1-10 mg/ml BSA solution, preferably 1 mg/ml. The chondroitinase solution is serially diluted into a final concentration in the range of 0.065-0.35 U/ml, and more preferably 0.260-0.175 U/ml. Chondroitin sulfate C is dissolved in a buffer at pH 7.0-9.0, preferably at pH 8.0±0.1 with Tris-HCl, sodium phosphate, sodium acetate or sodium borate, preferably 10-250 mM, and more preferably 50 mM Tris-HCl as buffer. The final concentration of chondroitin sulfate C is at the range of 0.2-20 mg/ml. Chondroitinase solution and the chondroitin sulfate C solution are pre-incubated in 37° C. and mixed in a ratio of 1:50. The reaction mixture is further incubated for 20 min for allowing the enzymatic reaction proceeding. The absorbance of the reaction mixture is continuously monitored by spectrophotometer and the rate of the reaction is calculated by multiplying the slope of the absorbance-time curve with millimolar extinct coefficient of the reaction product at 232 nm (which is reported to be 5.5.). […]
2 mg/ml Chondroitin sulfate C solution was prepared by dissolving in buffer at pH 8.0 Tris-HCl (50 mM). […] The reaction mixture was further incubated at 37° C. for 20 min in spectrophotometer and the absorbance at 232 nm was continuously monitored. […] In FIG. 3, the absorbance of the solution without the presence of heparin at 232 nm increased linearly.

chondroitinase ABC [6] = molecular target: T1, chondroitinase ABC; assay: Time profile of inhibition of chondroitinase ABC by heparin, absorbance at 232 nm; format: biochemical
Method: In one embodiment, the inhibition of chondroitinase ABC by heparin could be at a particular time point during the enzymatic treatment, so that the enzymatic action can be precisely terminated. […] The enzymatic reaction in the mixture, which is the digestion of the chondroitin sulfate polymer into unsaturated oligosaccharide or disaccharide, can be monitored at 232 nm with incubation in 37° C. The reaction can be incubated for 5 hours and at 1.5 and 2.5 hours, with suitable concentrations of heparin including, but not limited to, 0.1-0.01 times the chondroitin sulfate, being introduced for evaluating the time response of the inhibition effect. Detailed experimental results are illustrated in example 5.
Chondroitin sulfate and chondroitinase ABC were introduced into 50 mM Tris HCl buffered solution (pH 7.6), to a final concentration of 1 mg/ml and 0.001 U/ml. […] At time of 0 hour, 1.5 hour, and 2.5 hour, 0.01 mg/ml heparin was introduced into the reaction mixture separately into 3 reaction mixture, where the remaining reaction mixture was sampled and monitored at the same time interval as the 3 reaction mixture with heparin introduction. The progress of the enzymatic reaction was monitored by measuring the absorbance at 232 nm of a sample taken from the reaction mixture every 30 min.

| Substance | absorbance at 232 nm of solution (disc dissolution) (chondroitinase ABC [1]; 1U/ml chondroitinase ABC without heparin, compared with PBS and sodium lactate) | effect on DHI (intervertebral disc [2]) | DHI, without heparin (intervertebral disc [3]; 0.05 U chondroitinase ABC only) | DHI, without heparin (intervertebral disc [3]; 0.15 U chondroitinase ABC only) | DHI, without heparin (intervertebral disc [3]; 3 weeks after injection, 0.05 U chondroitinase ABC only) | DHI, without heparin (intervertebral disc [3]; 3 weeks after injection, 0.15 U chondroitinase ABC only) | binding to chondroitinase ABC (EMSA, Alcian Blue stain) (chondroitinase ABC [4]) | absorbance at 232 nm of solution (disc dissolution) (chondroitinase ABC [1]; 1U/ml chondroitinase ABC and 1 mg/ml heparin in PBS with 10 mM sodium lactate, 0, 5, 20 hours) | inhibition of enzymatic reaction of chondroitinase (absorbance at 232 nm) (chondroitinase ABC [5]) | rate of increase in absorbance at 232 nm of the reaction mixture (chondroitinase ABC [6]; 0.01 mg/ml heparin introduced at 0, 1.5 or 2.5 hour, 1 mg/ml chondroitin sulfate, 0.001 U/ml chondroitinase ABC, 37° C., 5 hours) | persistence of inhibition of the enzymatic reaction (chondroitinase ABC [6]; 0.01 mg/ml heparin, throughout the 5 hours reaction period) | DHI, with heparin (intervertebral disc [3]; 0 day after injection, 0.05 U chondroitinase ABC) | DHI, with heparin (intervertebral disc [3]; 0 day after injection, 0.15 U chondroitinase ABC) | effect on DHI reduction caused by chondroitinase ABC (intervertebral disc [3]; 0.05 U chondroitinase ABC) | effect on DHI reduction caused by chondroitinase ABC (intervertebral disc [3]; 0.15 U chondroitinase ABC) | DHI, with heparin (intervertebral disc [3]; 3 weeks after injection, 0.05 U chondroitinase ABC) | DHI, with heparin (intervertebral disc [3]; 3 weeks after injection, 0.15 U chondroitinase ABC) |
| --- | --- | --- | --- | --- | --- | --- | --- | --- | --- | --- | --- | --- | --- | --- | --- | --- | --- |
| Chondroitinase ABC | the absorbance increased remarkably | significantly reduction of DHI | 0.082 | 0.071 | 0.044 | 0.048 |  |  |  |  |  |  |  |  |  |  |  |
| heparin |  |  |  |  |  |  | binds tightly to the enzyme | significantly reduced the absorbance | completely inhibited | significantly reduced | remains stable and constant | 0.081 | 0.085 | significantly inhibited the DHI reduction | inhibited the DHI reduction but the inhibitory effect was not as significant as at the lower concentration | 0.082 | 0.066 |
